Results: ChEMBL document CHEMBL5724558, “Image-based profiling of drug vulnerabilities in CRC organoids” (2024)
Values joined by “and” are separate entries in the source; they are usually repeats but may differ in a detail not shown here. Equal values may be shown once.

Tests used:
Assay type in all cases: functional, Homo sapiens
Parameters in all cases: dose or concentration left out as unconfirmed
Colon cancer organoid [1] = experiment: (§1) Image-based profiling of donated chemical probes and chemogenomic kinase set in O06 CRC organoid. Image analysis is performed on the sum area metric, and the data were normalized to the DMSO control. After imaging the organoid viability is measured using the OneGloEX Luciferase Assay System. The normalized viability data and sum area are reported.
Colon cancer organoid [2] = experiment: as §1, with “O09” for “O06”
Colon cancer organoid [3] = experiment: as §1, with “O21” for “O06”

Compound	Cell Viability (Colon cancer organoid [1]; Replication number 1)	Cell Viability (Colon cancer organoid [1]; Replication number 2)	Cell Viability (Colon cancer organoid [2]; Replication number 1)	Cell Viability (Colon cancer organoid [2]; Replication number 2)	Cell Viability (Colon cancer organoid [3]; Replication number 1)	Cell Viability (Colon cancer organoid [3]; Replication number 2)
COc1ccc2c(c1)O[C@@H](c1ccc(OC)c(OC)c1)C[C@H]2NC(=O)C1(c2ccc3c(c2)OC(F)(F)O3)CC1 [A-1596586]	114.211% and 123.158%	130.418% and 120.375%	77.2703% and 96.7863%	76.2669% and 106.86%	105.739% and 116.224%	98.6022% and 86.1659%
CO[C@@H](C)c1c(Nc2ccc([C@@H](N(C)C(=O)C3CCS(=O)(=O)CC3)C(F)(F)F)cc2)cnc2cc(Cl)nn12 [NVS-MALT1-C]	48.3396% and 100.567%	78.0608% and 112.446%	63.1352% and 96.7863%	75.29% and 89.0167%	68.6015% and 94.398%	97.4598% and 109.109%
C[C@@]1(Cc2ccc(C#N)cc2)C(=O)N(c2cc(Cl)cc(Cl)c2)c2ncc(C(=O)NC3(c4nc(C5CCC5)no4)CC3)n21 [BI 9446]	120.452% and 119.438%	141.276% and 120.817%	73.271% and 85.2933%	87.2778% and 108.945%	115.902% and 114.683%	106.853% and 94.898%
CCCCN(Cc1ccccc1)C(=O)c1ccc(S(=O)(=O)Nc2ccccc2)cc1	128.543% and 118.777%	114.906% and 147.848%	116.29% and 115.073%	99.5038% and 96.018%	85.4191% and 92.3751%	113.731% and 107.676%
CN(C)C(=O)c1sc2nc(N3CCC(S(C)(=O)=O)CC3)cc(C(F)(F)F)c2c1N [BI-5026]	118.242% and 106.64%	81.5646% and 70.3988%	136.068% and 99.7874%	102.802% and 111.221%	97.3% and 81.8479%	110.845% and 100.952%
O=C(NOCC1CC1)c1ccc(F)c(F)c1Nc1ccc(I)cc1Cl [CI-1040]	3.322% and 9.147%	3.495% and 11.5373%	15.162% and 31.6659%	27.5568% and 31.5843%	35.0082% and 32.446%	40.3855% and 37.5387%
CCCOc1ccn2c(C(C)=O)cc(-c3cccc(OC)c3)c2c1	185.69% and 133.611%	217.677% and 137.175%	257.79% and 103.4%	158.474% and 115.458%	114.752% and 106.401%	123.226% and 102.029%
CN(C)c1ncnc(-c2ccc3nc(Nc4cc(CN5CCN(C(=O)CC(F)(F)F)CC5)ccn4)[nH]c3c2)c1Cl [BAY-440]	91.3612% and 98.3607%	93.5115% and 120.107%	134.702% and 130.21%	215.997% and 118.583%	107.586% and 105.951%	93.8566% and 87.7551%
Cc1cn(-c2cc(NC(=O)c3ccc4c(c3)CN(c3cncnc3)C[C@@H]4C)cc(C(F)(F)F)c2)cn1	59.0694% and 78.9076%	95.3584% and 115.454%	138.868% and 108.886%	120.836% and 109.134%	90.5152% and 91.8083%	113.206% and 94.0752%
C=CC(=O)Nc1ccc2[nH]c(=O)n(C3CCN(Cc4ccc(-c5nc6cc[nH]c(=O)c6cc5-c5ccccc5)cc4)CC3)c2c1 [Borussertib]	53.8202% and 93.0364%	55.5643% and 106.199%	27.7912% and 48.9559%	42.376% and 51.9429%	72.0097% and 96.5806%	66.1245% and 78.518%
O=C(Nc1cccnn1)N1CCC(=Cc2cccc(Oc3ccc(C(F)(F)F)cn3)c2)CC1	84.0807% and 127.869%	104.052% and 107.077%	126.629% and 132.36%	65.2365% and 71.2669%	101.123% and 116.429%	106.817% and 109.694%
CNc1nc(Nc2cnn([C@H]3CCN(C4COC4)C[C@@H]3F)c2Cl)ncc1C(F)(F)F	126.64% and 127.973%	90.3478% and 106.324%	95.686% and 93.751%	102.903% and 81.5252%	107.524% and 121.533%	104.61% and 94.4225%
CC#CC(=O)N1CCC[C@H]1c1nc(-c2ccc(C(=O)Nc3ccccn3)cc2)c2c(N)nccn12 [ACALABRUTINIB]	108.483% and 104.159%	68.1537% and 91.7224%	72.6716% and 83.0294%	131.144% and 94.2129%	90.1303% and 116.516%	93.0581% and 134.149%
Cc1c(NC(=O)c2cc(C(N)=O)nc3cc(F)ccc23)c(C(F)(F)F)nn1Cc1ccc(C#N)cc1 [BAY-876]	10.662% and 26.9321%	13.3809% and 14.2138%	36.4456% and 33.4484%	36.255% and 13.5816%	21.7392% and 19.9094%	22.1552% and 34.1837%
O=C(O)c1ccc(-c2c[nH]c3ncc(-c4ccccc4)cc23)cc1C1CCCC1 [GSK-650394]	96.4947% and 115.731%	112.452% and 109.917%	86.6407% and 76.4679%	121.957% and 104.927%	104.512% and 92.3751%	123.401% and 109.943%
CC(=O)Nc1c(F)cc(C(=O)N[C@H]2CC[C@H](O)CC2)cc1O[C@@H](C)c1ccccc1 [GSK046]	114.325% and 118.785%	117.277% and 127.102%	43.6665% and 86.4699%	69.7579% and 96.7486%	120.66% and 109.131%	123.541% and 110.129%
CCOC(=O)CCNc1cc(N2CCc3ccccc3CC2)nc(-c2cccnc2)n1	133.48% and 94.953%	206.72% and 136.936%	137.493% and 102.473%	150.843% and 118.309%	67.1414% and 86.4141%	103.603% and 97.7327%
CCNC(=O)c1cc2c(N3CCOC[C@@H]3C)ccnc2n1C	97.9107% and 98.1265%	90.7853% and 98.7859%	131.24% and 98.4338%	151.747% and 108.945%	124.621% and 105.951%	105.072% and 92.3469%
COc1ccccc1C(=O)Nc1cc2c(cc1N1CCNCC1C)n(C)c(=O)n2C (stereo unspecified)	207.592% and 157.772%	161.771% and 130.961%	86.1318% and 106.414%	94.809% and 101.774%	113.606% and 138.145%	93.8896% and 107.936%
O=C(Nc1ccc(-c2ccnc(Nc3ccc(N4CCOCC4)cc3)n2)cc1)[C@@H]1CCCN1	113.887% and 133.092%	82.4971% and 82.4679%	74.06% and 64.3291%	67.524% and 79.6356%	122.386% and 130.453%	118.022% and 143.361%
C[C@@H](NC(=O)Nc1cc2[nH]ncc2c(CO)n1)c1ccccc1 [ERKi]	27.1255% and 47.7752%	41.1023% and 64.199%	38.3769% and 59.9681%	20.7917% and 30.6681%	47.444% and 52.6843%	54.1158% and 53.5714%
CN(C)C(=O)Cn1cc(-c2ccc(-c3cncc4ccccc34)cc2)cn1	73.9778% and 127.973%	75.2678% and 99.5373%	314.332% and 120.679%	170.131% and 105.821%	132.258% and 129.895%	113.21% and 111.119%
CN(C)C(=O)Cn1cc(-c2ccc(-c3nnc4ccccn34)cc2)cn1	116.057% and 113.952%	85.0591% and 113.728%	166.343% and 115.942%	81.4375% and 98.5321%	108.728% and 107.596%	93.8353% and 96.1497%
O=C(NCC(=O)N1CCCC1)Nc1ccc2cnccc2c1	118.335% and 117.664%	145.589% and 95.8311%	77.5338% and 89.49%	125.69% and 99.4932%	118.981% and 107.577%	82.9956% and 91.8258%
C=CC(=O)Nc1ccc2[nH]c(=O)n(C3CCN(C(=O)c4ccc(-c5nc6cc[nH]c(=O)c6cc5-c5ccccc5)cc4)CC3)c2c1	120.248% and 109.056%	107.251% and 98.7147%	86.8441% and 100.234%	90.0124% and 91.2435%	115.206% and 106.481%	111.195% and 142.785%
Cc1cc(C)cc([C@H]2c3cc(C)ccc3NC(=O)CN2C(=O)c2ccc(Br)s2)c1	159.149% and 112.832%	176.911% and 106.346%	143.943% and 101.546%	157.398% and 102.629%	126.442% and 119.334%	102.791% and 105.788%
